Read-outs that look alike come from different tables or passages of the source.
System: A2780 cells
Assay: In-vitro cell proliferation assay (SRB, 72 hours)
Format: cell-based
Details: A2780 cells, 72 hours, SRB, read-out: Cell Proliferation (IC50)

Row | Structure (SMILES) | IC50 (Homo sapiens, A2780, 72 h) [µM] | IC50 [µM]
1 | O=C(NCC1CC12CCN(C(=O)c1cnoc1C1CC1)CC2)c1cc2ccncc2o1 (stereo not drawn) [Example 328, N-[[6-(5-cyclopropylisoxazole-4-carbonyl)-6-azaspiro[2.5]octan-2-yl]methyl]furo[2,3-c]pyridine-2-carboxamide] | 0.0834 | 
2 | Cc1n[nH]c(C)c1C(=O)N1CCC2(CC1)CC2CNC(=O)c1cc2ccncc2o1 (stereo not drawn) [Example 329, N-[[6-(3,5-dimethyl-1H-pyrazole-4-carbonyl)-6-azaspiro[2.5]octan-2-yl]methyl]furo[2,3-c]pyridine-2-carboxamide] | 0.0551 | 
3 | Cc1c(C(=O)N2CCC3(CC2)CC3CNC(=O)c2cc3ccncc3o2)cnn1C (stereo not drawn) [Example 330, N-[[6-(1,5-dmiethylpyrazole-4-carbonyl)-6-azaspiro[2.5]octan-2-yl]methyl]furo[2,3-c]pyridine-2-carboxamide] | 0.159 | 
4 | Cc1ncoc1C(=O)N1CCC2(CC1)CC2CNC(=O)c1cc2ccncc2o1 (stereo not drawn) [Example 331, N-[[6-(4-methyloxazole-5-carbonyl)-6-azaspiro[2.5]octan-2-yl]methyl]furo[2,3-c]pyridine-2-carboxamide] | 0.00704 | 
5 | O=C(NCC1CC12CCN(C(=O)c1c[nH]nc1C1CC1)CC2)c1cc2ccncc2o1 (stereo not drawn) [Example 332, N-[[6-(3-cyclopropyl-1H-pyrazole-4-carbonyl)-6-azaspiro[2.5]oetan-2-yl]methyl]furo[2,3-c]pyridine-2-carboxamide] | 0.0338 | 
6 | O=C(NCC1CC12CCN(C(=O)c1n[nH]c3c1CCC3)CC2)c1cc2ccncc2o1 (stereo not drawn) [Example 333, N-[[6-(1,4,5,6-tetrahydrocyclopenta[c]pyrazole-3-carbonyl)-6-azaspiro[2.5]octan-2-yl]methyl]furo[2,3-c]pyridine-2-carboxamide] | 0.00681 | 
7 | Cc1nc(C(=O)N2CCC3(CC2)CC3CNC(=O)c2cc3ccncc3o2)c(C)o1 (stereo not drawn) [Example 334, N-[[6-(2,5-dimethyloxazole-4-carbonyl)-6-azaspiro[2.5]octan-2-yl]methyl]furo[2,3-c]pyridine-2-carboxamide] | 0.0565 | 
8 | Cc1nn(C)cc1C(=O)N1CCC2(CC1)CC2CNC(=O)c1cc2ccncc2o1 (stereo not drawn) [Example 335, N-[[6-(1,3-dimethylpyrazole-4-carbonyl)-6-azaspiro[2.5]octan-2-yl]methyl]furo[2,3-c]pyridine-2-carboxamide] | 0.59 | 
9 | O=C(NCC1CC12CCN(C(=O)c1cnco1)CC2)c1cc2ccncc2o1 (stereo not drawn) [Example 336, N-[[6-(oxazole-5-carbonyl)-6-azaspiro[2.5]octan-2-yl]methyl]furo[2,3-c]pyridine-2-carboxamide] | 0.0635 | 
10 | O=C(NCC1CC12CCN(C(=O)c1cnoc1)CC2)c1cc2ccncc2o1 (stereo not drawn) [Example 337, N-[[6-(isoxazole-4-carbonyl)-6-azaspiro[2.5]octan-2-yl]methyl]furo[2,3-c]pyridine-2-carboxamide] | 0.0231 | 
11 | O=C(NCC1CC12CCN(C(=O)c1ncc[nH]1)CC2)c1cc2ccncc2o1 (stereo not drawn) [Example 338, N-[[6-(1H-imidazole-2-carbonyl)-6-azaspiro[2.5]octan-2-yl]methyl]furo[2,3-c]pyridine-2-carboxamide] | 2 | 
12 | CN1CCN(c2ccc(C(=O)N3CCC4(CC3)CC4CNC(=O)c3cc4ccncc4o3)cc2)CC1 (stereo not drawn) [Example 339, N-[[6-[4-(4-Methylpiperazin-1-yl)benzoyl]-6-azaspiro[2.5]octan-2-yl]methyl]furo[2,3-c]pyridine-2-carboxamide] | 0.0019 | 
13 | O=C(NCC1CC12CCN(C(=O)c1cnc3[nH]cnc3c1)CC2)c1cc2ccncc2o1 (stereo not drawn) [Example 340, N-[[6-(3H-imidazo[4,5-b]pyridine-6-carbonyl)-6-azaspiro[2.5]octan-2-yl]methyl]furo[2,3-c]pyridine-2-carboxamide] | 0.429 | 
14 | Cc1ccc(C(=O)N2CCC3(CC2)CC3CNC(=O)c2cc3ccncc3o2)nc1 (stereo not drawn) [Example 341, N-[[6-(5-methylpyridine-2-carbonyl)-6-azaspiro[2.5]octan-2-yl)methyl]furo[2,3-c]pyridine-2-carboxamide] | 0.717 | 
15 | CN1CCN(Cc2ccc(C(=O)N3CCC4(CC3)CC4CNC(=O)c3cc4cnccc4[nH]3)cc2)CC1 (stereo not drawn) [Example 343, N-[[6-[4-[(4-methylpiperazin-1-yl)methyl]benzoyl]-6-azaspiro[2.5]octan-2-yl]methyl]-1H-pyrrolo[3,2-c]pyridine-2-carboxamide] | 0.0425 | 
16 | CN1CCN(Cc2cccc(C(=O)N3CCC4(CC3)CC4CNC(=O)c3cc4cnccc4[nH]3)c2)CC1 (stereo not drawn) [Example 344, N-[[6-[3-[(4-methylpiperazin-1-yl)methyl]benzoyl]-6-azaspiro[2.5]octan-2-yl]methyl]-1H-pyrrolo[3,2-c]pyridine-2-carboxamide] | 0.072 | 
17 | CN(C)Cc1ccc(C(=O)N2CCC3(CC2)CC3CNC(=O)c2cc3cnccc3[nH]2)cc1 (stereo not drawn) [Example 345, N-[[6-[4-[(dimethylamino)methyl]benzoyl]-6-azaspiro[2.5]octan-2-yl]methyl]-1H-pyrrolo[3,2-c]pyridine-2-carboxamide] | 0.0808 | 

Row | Structure (SMILES) | IC50 (Homo sapiens, A2780, 72 h) [µM] | IC50 [µM]
18 | CN1CCN(Cc2ccc(C(=O)N3CCC4(CC3)CC4CNC(=O)N3Cc4ccncc4C3)cc2)CC1 (stereo not drawn) [Example 346, N-[[6-[4-[(4-methylpiperazin-1-yl)methyl]benzoyl]-6-azaspiro[2.5]octan-2-yl]methyl]-1,3-dihydropyrrolo[3,4-c]pyridine-2-carboxamide] | 0.00601 | 
19 | CC1(C)CC1C(=O)N1CCC2(CC1)CC2CNC(=O)c1cc2cnccc2[nH]1 (stereo not drawn) [Example 348, N-[[6-(2,2-dimethylcyclopropanecarbonyl)-6-azaspiro[2.5]octan-2-yl]methyl]-1H-pyrrolo[3,2-c]pyridine-2-carboxamide] |  | 0.0426
20 | CC(C)(CO)OC(=O)N1CCC2(CC1)CC2CNC(=O)N1Cc2ccncc2C1 (stereo not drawn) [Example 351, (2-hydroxy-1,1-dimethyl-ethyl) 2-[(1,3-dihydropyrrolo[3,4-c]pyridine-2-carbonylamino)methyl]-6-azaspiro[2.5]octane-6-carboxylate] | 0.00356 | 
21 | O=C(NCC1CC12CCN(C(=O)c1cc(C3CC3)n[nH]1)CC2)N1Cc2ccncc2C1 (stereo not drawn) [Example 353, N-[[6-(3-cyclopropyl-1H-pyrazole-5-carbonyl)-6-azaspiro[2.5]octan-2-yl]methyl]-1,3-dihydropyrrolo[3,4-c]pyridine-2-carboxamide] | 0.00755 | 
22 | Cn1cc(-c2ccno2)c(C(=O)N2CCC3(CC2)CC3CNC(=O)N2Cc3ccncc3C2)n1 (stereo not drawn) [Example 354, N-[[6-(4-isoxazol-5-yl-1-methyl-pyrazole-3-carbonyl)-6-azaspiro[2.5]octan-2-yl]methyl]-1,3-dihydropyrrolo[3,4-c]pyridine-2-carboxamide] | 0.00707 | 
23 | CN1CCC(C)(CC(=O)N2CCC3(CC2)CC3CNC(=O)N2Cc3ccncc3C2)CC1 (stereo not drawn) [Example 356, N-[[6-[2-(1,4-dimethyl-4-piperidyl)acetyl]-6-azaspiro[2.5]octan-2-yl]methyl]-1,3-dihydropyrrolo[3,4-c]pyridine-2-carboxamide] | 0.00762 | 
24 | N#Cc1ccccc1CC(=O)N1CCC2(CC1)CC2CNC(=O)N1Cc2ccncc2C1 (stereo not drawn) [Example 357, N-[[6-[2-(2-cyanophenyl)acetyl]-6-azaspiro[2.5]octan-2-yl]methyl]-1,3-dihydropyrrolo[3,4-c]pyridine-2-carboxamide] | 0.0106 | 
25 | CC(=O)NCC(C)(C)OC(=O)N1CCC2(CC1)CC2CNC(=O)N1Cc2ccncc2C1 (stereo not drawn) [Example 358, (2-acetamido-1,1-dimethyl-ethyl)2-[(1,3-dihydropyrrolo[3,4-c]pyridine-2-carbonylamino)methyl]-6-azaspiro[2.5]octane-6-carboxylate] | 0.00919 | 
26 | C=C/N=C\C1=CCN(C(=O)NCC2CC23CCN(C(=O)CCC(C)(C)O)CC3)C1 (stereo not drawn) [Example 360, N-[[6-(4-hydroxy-4-methyl-pentanoyl)-6-azaspiro[2.5]octan-2-yl]methyl]-1,3-dihydropyrroIo[3,4-c]pyridine-2-carboxamide] | 0.0509 | 
27 | CC1(NC(=O)N2CCC3(CC2)CC3CNC(=O)N2Cc3ccncc3C2)COC1 (stereo not drawn) [Example 361, N-[[6-[(3-methyloxetan-3-yl)carbamoyl]-6-azaspiro[2.5]octan-2-yl]methyl]-1,3-dihydropyrrolo[3,4-c]pyridine-2-carboxamide] | 0.0561 | 
28 | CN1CCN(c2ccc(C(=O)N3CCC4(CC3)CC4CNC(=O)N3Cc4ccncc4C3)cc2)CC1 (stereo not drawn) [Example 362, N-[[6-[4-(4-methylpiperazin-1-yl)benzoyl]-6-azaspiro[2.5]octan-2-yl]methyl]-1,3-dihydropyrrolo[3,4-c]pyridine-2-carboxamide] | 0.0019 | 
29 | CN1CCN(c2ccc(C(=O)N3CCC4(CC3)CC4CNC(=O)c3cc4cnccc4[nH]3)cc2)CC1 (stereo not drawn) [Example 363, N-[[6-[4-(4-methylpiperazin-1-yl)benzoyl]-6-azaspiro[2.5]octan-2-yl]methyl]-1H-pyrrolo[3,2-c]pyridine-2-carboxamide] | 0.0114 | 
30 | CC1(C)CC1C(=O)N1CCC2(CC1)CC2CNC(=O)c1cc2cnccc2[nH]1 (stereo not drawn) [Example 364, N-[[6-(2,2-dimethylcyclopropanecarbonyl)-6-azaspiro[2.5]octan-2-yl]methyl]-1H-pyrrolo[3,2-c]pyridine-2-carboxamide] |  | 0.11
31 | O=C(NCC1CC12CCN(C(=O)c1cc(C3CC3)n[nH]1)CC2)c1cc2cnccc2[nH]1 (stereo not drawn) [Example 368, N-[[6-(3-cyclopropyl-1H-pyrazole-5-carbonyl)-6-azaspiro[2.5]octan-2-yl]methyl]-1H-pyrrolo[3,2-c]pyridine-2-carboxamide] | 0.991 | 
32 | Cn1cc(-c2ccno2)c(C(=O)N2CCC3(CC2)CC3CNC(=O)c2cc3cnccc3[nH]2)n1 (stereo not drawn) [Example 369, N-[[6-(4-isoxazol-5-yl-1-methyl-pyrazole-3-carbonyl)-6-azaspiro[2.5]octan-2-yl]methyl]-1H-pyrrolo[3,2-c]pyridine-2-carboxamide] | 0.0933 | 
33 | Cc1nc(C)c(C(=O)N2CCC3(CC2)CC3CNC(=O)c2cc3cnccc3[nH]2)o1 (stereo not drawn) [Example 370, N-[[6-(2,4-dimethyloxazole-5-carbonyl)-6-azaspiro[2.5]octan-2-yl]methyl]-1H-pyrrolo[3,2-c]pyridine 2-carboxamide] | 0.115 | 

Reference: patent publication US10730889B2, “Amido spirocyclic amide and sulfonamide derivatives” (Forma TM, LLC, priority 2012, dated 2020)
